From the kinase profiling compilation of Christmann-Franck et al. (2016)

How the values were obtained:
Assay in all cases: KINOMEscan competition binding
Details in all cases: compound 10.0 µM
[1] = target: PRKD2 (human) (UniProt Q9BZL6)
[2] = target: EPHB2 (human) (UniProt P29323)
[3] = target: BRSK2 (human) (UniProt Q8IWQ3)
[4] = target: RIPK2 (human) (UniProt O43353)
[5] = target: TYK2 JH1 catalytic (human) (UniProt P29597)
[6] = target: MAP4K5 (human) (UniProt Q9Y4K4)
[7] = system: MET (human), P08581 [Y1235D]
[8] = target: VRK2 (human) (UniProt Q86Y07)
[9] = target: EPHA3 (human) (UniProt P29320)
[10] = system: PIK3CA (human), P42336 [M1043I]
[11] = target: CSNK1A1 (human) (UniProt P48729)
[12] = target: TNIK (human) (UniProt Q9UKE5)
[13] = target: NEK6 (human) (UniProt Q9HC98)
[14] = target: CLK2 (human) (UniProt P49760)
[15] = target: ACVRL1 (human) (UniProt P37023)
[16] = target: RPS6KA1 KD1 (human) (UniProt Q15418)
[17] = target: STK32C (human) (UniProt Q86UX6)
[18] = target: DCLK3 (human) (UniProt Q9C098)
[19] = target: MAP3K15 (human) (UniProt Q6ZN16)
[20] = target: MAPK7 (human) (UniProt Q13164)
[21] = target: SRC (human) (UniProt P12931)
[22] = target: RPS6KA3 KD1 (human) (UniProt P51812)
[23] = target: PDGFRB (human) (UniProt P09619)
[24] = target: MAPK4 (human) (UniProt P31152)
[25] = system: FLT3 (human), P36888 [N841I]
[26] = target: BRSK1 (human) (UniProt Q8TDC3)
[27] = target: MAP3K2 (human) (UniProt Q9Y2U5)
[28] = target: GSK3A (human) (UniProt P49840)
[29] = target: PIK3C2G (human) (UniProt O75747)
[30] = target: RIOK1 (human) (UniProt Q9BRS2)
[31] = target: FGFR3 (human) (UniProt P22607)
[32] = target: HIPK3 (human) (UniProt Q9H422)
[33] = system: KIT (human), P10721 [D816H]
[34] = target: MAP2K1 (human) (UniProt Q02750)
[35] = target: PRKCE (human) (UniProt Q02156)
[36] = target: PRKG1 (human) (UniProt Q13976)
[37] = target: NEK3 (human) (UniProt P51956)
[38] = target: PLK4 (human) (UniProt O00444)
[39] = target: ANKK1 (human) (UniProt Q8NFD2)

Chain of STK32C (human) (Q86UX6 whole entry, looked up): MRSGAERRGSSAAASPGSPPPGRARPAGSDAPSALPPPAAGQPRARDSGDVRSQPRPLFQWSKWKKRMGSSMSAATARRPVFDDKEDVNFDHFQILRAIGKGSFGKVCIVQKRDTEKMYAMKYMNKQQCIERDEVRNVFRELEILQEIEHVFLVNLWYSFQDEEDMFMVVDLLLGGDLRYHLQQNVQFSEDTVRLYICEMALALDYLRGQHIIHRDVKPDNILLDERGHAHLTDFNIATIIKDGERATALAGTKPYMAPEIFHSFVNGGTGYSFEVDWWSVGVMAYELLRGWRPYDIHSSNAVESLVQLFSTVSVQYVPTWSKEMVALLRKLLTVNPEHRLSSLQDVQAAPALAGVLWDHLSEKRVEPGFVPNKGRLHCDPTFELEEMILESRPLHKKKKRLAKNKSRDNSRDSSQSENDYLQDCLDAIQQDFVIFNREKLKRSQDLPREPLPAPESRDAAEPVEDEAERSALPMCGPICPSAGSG
Chain of MAPK7 (human) (Q13164 whole entry, looked up): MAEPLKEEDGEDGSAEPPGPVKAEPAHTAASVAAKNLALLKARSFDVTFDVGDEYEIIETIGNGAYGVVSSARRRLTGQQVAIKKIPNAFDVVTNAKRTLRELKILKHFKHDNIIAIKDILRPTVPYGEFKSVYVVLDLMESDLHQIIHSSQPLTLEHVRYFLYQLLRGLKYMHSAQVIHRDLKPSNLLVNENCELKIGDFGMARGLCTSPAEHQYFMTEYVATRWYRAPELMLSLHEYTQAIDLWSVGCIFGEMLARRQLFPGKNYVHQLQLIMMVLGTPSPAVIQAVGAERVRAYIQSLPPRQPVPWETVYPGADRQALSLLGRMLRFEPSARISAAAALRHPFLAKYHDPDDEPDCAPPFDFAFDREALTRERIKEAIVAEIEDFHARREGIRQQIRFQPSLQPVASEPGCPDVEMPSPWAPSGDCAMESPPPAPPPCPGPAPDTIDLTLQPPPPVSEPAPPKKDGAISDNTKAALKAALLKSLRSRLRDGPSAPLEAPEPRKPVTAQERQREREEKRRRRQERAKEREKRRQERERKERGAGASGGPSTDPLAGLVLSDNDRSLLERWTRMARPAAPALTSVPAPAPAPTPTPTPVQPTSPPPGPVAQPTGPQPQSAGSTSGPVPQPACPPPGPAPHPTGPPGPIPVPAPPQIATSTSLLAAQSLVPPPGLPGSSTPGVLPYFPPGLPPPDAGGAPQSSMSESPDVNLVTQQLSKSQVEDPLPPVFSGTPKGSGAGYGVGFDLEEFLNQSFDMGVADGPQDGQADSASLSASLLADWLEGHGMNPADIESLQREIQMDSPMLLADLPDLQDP
Chain of RPS6KA1 KD1 (human) (Q15418 whole entry, looked up): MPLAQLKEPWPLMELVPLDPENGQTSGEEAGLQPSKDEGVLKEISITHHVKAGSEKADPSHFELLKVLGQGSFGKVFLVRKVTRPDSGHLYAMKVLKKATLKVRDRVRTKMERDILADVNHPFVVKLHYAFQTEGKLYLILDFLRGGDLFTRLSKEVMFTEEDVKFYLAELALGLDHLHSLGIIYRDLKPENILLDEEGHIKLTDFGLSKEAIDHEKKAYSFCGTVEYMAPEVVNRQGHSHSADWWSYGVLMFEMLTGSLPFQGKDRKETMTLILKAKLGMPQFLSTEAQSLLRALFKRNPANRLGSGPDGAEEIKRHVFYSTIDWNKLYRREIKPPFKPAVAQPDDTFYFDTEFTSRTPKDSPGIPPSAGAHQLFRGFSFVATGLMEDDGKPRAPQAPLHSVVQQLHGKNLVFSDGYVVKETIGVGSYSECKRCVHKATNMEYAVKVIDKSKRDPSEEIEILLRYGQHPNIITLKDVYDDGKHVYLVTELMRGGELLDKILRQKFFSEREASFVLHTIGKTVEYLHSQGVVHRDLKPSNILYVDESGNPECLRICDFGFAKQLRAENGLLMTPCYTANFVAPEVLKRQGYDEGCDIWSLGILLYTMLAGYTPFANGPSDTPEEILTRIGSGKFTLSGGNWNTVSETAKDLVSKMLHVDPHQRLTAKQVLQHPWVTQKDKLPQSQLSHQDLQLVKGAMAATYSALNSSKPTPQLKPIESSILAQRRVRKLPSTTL
Chain of NEK3 (human) (P51956 whole entry, looked up): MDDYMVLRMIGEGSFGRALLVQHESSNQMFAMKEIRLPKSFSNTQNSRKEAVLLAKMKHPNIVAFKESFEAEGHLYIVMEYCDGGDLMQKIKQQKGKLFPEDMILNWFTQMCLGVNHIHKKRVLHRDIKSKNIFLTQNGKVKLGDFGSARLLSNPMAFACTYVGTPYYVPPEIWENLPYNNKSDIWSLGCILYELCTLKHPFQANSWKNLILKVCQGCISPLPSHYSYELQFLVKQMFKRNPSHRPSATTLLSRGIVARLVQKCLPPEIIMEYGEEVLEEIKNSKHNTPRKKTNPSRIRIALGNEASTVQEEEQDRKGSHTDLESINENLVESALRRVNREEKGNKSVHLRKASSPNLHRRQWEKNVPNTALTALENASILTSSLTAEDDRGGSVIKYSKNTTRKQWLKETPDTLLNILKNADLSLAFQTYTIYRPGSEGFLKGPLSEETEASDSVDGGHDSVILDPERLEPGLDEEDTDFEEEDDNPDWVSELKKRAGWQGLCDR
Chain of PRKG1 (human) (Q13976 whole entry, looked up): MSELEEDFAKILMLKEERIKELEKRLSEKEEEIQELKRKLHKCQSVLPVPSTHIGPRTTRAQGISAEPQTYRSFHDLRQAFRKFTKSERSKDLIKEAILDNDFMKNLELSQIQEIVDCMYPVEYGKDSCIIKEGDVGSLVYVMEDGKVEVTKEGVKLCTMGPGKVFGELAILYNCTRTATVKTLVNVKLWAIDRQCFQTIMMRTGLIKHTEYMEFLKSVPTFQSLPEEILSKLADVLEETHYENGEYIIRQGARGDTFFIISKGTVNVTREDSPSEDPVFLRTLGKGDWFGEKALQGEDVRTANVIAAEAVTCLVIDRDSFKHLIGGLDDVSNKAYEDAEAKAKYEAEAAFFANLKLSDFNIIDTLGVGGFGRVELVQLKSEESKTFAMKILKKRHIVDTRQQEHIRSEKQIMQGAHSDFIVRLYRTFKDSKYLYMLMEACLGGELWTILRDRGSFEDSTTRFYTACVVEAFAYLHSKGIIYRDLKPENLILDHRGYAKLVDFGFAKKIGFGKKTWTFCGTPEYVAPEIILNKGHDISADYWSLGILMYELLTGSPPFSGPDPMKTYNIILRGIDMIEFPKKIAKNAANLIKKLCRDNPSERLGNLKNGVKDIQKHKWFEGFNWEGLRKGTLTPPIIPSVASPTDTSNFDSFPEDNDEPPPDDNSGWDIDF
Chain of VRK2 (human) (Q86Y07 whole entry, looked up): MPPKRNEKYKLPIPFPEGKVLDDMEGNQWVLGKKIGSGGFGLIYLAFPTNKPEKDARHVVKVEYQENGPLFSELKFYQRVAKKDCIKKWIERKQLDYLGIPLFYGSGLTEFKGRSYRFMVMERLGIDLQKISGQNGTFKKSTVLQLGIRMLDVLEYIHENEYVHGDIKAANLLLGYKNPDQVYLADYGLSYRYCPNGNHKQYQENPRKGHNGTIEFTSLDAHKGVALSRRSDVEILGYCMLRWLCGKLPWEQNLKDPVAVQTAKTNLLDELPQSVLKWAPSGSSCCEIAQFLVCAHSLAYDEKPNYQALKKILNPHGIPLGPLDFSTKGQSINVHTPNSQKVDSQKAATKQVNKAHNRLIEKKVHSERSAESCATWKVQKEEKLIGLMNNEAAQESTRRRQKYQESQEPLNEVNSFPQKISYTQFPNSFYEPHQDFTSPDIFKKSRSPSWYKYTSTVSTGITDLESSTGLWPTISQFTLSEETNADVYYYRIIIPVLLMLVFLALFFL
Chain of PRKCE (human) (Q02156 whole entry, looked up): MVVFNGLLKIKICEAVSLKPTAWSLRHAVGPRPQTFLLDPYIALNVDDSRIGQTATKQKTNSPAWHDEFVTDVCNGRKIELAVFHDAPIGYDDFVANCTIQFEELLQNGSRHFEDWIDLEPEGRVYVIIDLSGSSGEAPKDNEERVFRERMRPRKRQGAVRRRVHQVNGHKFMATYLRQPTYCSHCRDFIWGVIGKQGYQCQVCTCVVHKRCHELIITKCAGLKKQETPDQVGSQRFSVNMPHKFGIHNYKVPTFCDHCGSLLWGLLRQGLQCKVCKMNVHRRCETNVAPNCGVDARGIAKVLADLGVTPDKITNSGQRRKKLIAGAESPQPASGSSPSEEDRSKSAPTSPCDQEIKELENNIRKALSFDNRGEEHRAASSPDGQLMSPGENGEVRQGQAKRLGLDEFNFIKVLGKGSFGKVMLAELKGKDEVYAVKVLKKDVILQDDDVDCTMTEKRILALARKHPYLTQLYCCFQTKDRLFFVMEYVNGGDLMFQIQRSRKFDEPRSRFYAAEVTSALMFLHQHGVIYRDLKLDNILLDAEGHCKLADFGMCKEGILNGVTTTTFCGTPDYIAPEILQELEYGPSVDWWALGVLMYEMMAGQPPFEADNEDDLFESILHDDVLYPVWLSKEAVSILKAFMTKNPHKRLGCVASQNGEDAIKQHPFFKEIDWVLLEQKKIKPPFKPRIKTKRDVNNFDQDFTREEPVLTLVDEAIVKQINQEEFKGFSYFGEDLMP
Chain of MAP2K1 (human) (Q02750 whole entry, looked up): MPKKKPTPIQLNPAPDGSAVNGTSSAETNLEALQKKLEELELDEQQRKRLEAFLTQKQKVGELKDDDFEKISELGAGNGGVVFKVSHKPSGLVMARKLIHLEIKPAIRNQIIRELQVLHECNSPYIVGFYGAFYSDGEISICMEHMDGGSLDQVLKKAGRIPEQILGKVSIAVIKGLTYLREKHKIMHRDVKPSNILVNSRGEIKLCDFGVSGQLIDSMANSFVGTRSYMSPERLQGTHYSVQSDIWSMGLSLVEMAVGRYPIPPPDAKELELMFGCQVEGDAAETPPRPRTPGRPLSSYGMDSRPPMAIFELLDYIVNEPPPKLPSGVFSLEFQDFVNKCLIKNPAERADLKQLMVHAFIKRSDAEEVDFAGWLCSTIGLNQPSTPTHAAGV

With `Cc1ccc(NC(=O)c2ccc(NC(=O)/C=C/CN(C)C)cc2)cc1Nc1nccc(-c2cccnc2)n1` the kinase still bound, per cent of control [1] was 100%, the kinase still bound, per cent of control [2] was 100% and the kinase still bound, per cent of control [3] was 88%. The kinase still bound, per cent of control [4] was 67%, the kinase still bound, per cent of control [5] was 92% and the kinase still bound, per cent of control [6] was 93%. The kinase still bound, per cent of control [7] was 100%, the kinase still bound, per cent of control [8] was 85% and the kinase still bound, per cent of control [9] was 83%. For the same compound, the kinase still bound, per cent of control [10] was 100%, the kinase still bound, per cent of control [11] was 55% and the kinase still bound, per cent of control [12] was 43%. For the same compound, the kinase still bound, per cent of control [13] was 44%, the kinase still bound, per cent of control [14] was 100% and the kinase still bound, per cent of control [15] was 100%. The kinase still bound, per cent of control [16] was 63%, the kinase still bound, per cent of control [17] was 80% and the kinase still bound, per cent of control [18] was 100%. It also gave a kinase still bound, per cent of control [19] of 92%, a kinase still bound, per cent of control [20] of 100% and a kinase still bound, per cent of control [21] of 78%. The kinase still bound, per cent of control [22] was 52%, the kinase still bound, per cent of control [23] was 0% and the kinase still bound, per cent of control [24] was 100%. For the same compound, the kinase still bound, per cent of control [25] was 92%, the kinase still bound, per cent of control [26] was 53% and the kinase still bound, per cent of control [27] was 84%. The kinase still bound, per cent of control [28] was 100%, the kinase still bound, per cent of control [29] was 100% and the kinase still bound, per cent of control [30] was 34%. It also gave a kinase still bound, per cent of control [31] of 100%, a kinase still bound, per cent of control [32] of 35% and a kinase still bound, per cent of control [33] of 29%. It also gave a kinase still bound, per cent of control [34] of 95%, a kinase still bound, per cent of control [35] of 100% and a kinase still bound, per cent of control [36] of 97%. For the same compound, the kinase still bound, per cent of control [37] was 99%, the kinase still bound, per cent of control [38] was 41% and the kinase still bound, per cent of control [39] was 13%.
